Series [1] concerns the target T1, CYP2C8 (Homo sapiens, UniProt P10632).
T1 sequence (P10632 1-490): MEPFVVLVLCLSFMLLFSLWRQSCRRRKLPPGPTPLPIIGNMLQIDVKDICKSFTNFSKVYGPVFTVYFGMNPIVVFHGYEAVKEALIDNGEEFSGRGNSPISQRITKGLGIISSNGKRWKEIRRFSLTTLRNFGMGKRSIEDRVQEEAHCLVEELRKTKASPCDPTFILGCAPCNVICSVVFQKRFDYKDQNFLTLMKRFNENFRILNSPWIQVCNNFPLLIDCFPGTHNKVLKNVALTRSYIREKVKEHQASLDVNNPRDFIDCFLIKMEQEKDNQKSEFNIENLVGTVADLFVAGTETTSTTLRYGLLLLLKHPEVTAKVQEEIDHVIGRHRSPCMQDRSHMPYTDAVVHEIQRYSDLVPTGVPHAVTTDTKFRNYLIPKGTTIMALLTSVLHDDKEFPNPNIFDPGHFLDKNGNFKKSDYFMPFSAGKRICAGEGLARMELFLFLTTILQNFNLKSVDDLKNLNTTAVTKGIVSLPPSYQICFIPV
As to the kind of experiment: recombinant CYP activity with fluorogenic substrate. The series is classed as biochemical.

The target in series [2] is T2, CYP2A6 (Homo sapiens, UniProt P11509).
T2 sequence (P11509 1-494): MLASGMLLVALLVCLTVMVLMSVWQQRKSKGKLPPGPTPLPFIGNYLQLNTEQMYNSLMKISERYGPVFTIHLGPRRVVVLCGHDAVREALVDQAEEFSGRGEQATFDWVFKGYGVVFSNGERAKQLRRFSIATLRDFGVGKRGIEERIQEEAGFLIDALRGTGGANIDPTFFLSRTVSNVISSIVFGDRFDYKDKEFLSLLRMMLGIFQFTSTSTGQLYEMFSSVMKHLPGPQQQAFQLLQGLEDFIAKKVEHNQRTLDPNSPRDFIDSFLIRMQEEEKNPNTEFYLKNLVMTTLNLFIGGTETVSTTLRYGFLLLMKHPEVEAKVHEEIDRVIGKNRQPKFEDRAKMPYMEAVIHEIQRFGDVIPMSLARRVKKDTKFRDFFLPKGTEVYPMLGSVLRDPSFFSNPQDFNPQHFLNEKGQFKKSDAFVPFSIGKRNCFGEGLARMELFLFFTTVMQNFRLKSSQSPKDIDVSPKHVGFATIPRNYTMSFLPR
The description is as above. The series is classed as biochemical.

Series [3] has as its target T3, CYP1A2 (Homo sapiens, UniProt P05177).
T3 sequence (P05177 2-516 limits assumed): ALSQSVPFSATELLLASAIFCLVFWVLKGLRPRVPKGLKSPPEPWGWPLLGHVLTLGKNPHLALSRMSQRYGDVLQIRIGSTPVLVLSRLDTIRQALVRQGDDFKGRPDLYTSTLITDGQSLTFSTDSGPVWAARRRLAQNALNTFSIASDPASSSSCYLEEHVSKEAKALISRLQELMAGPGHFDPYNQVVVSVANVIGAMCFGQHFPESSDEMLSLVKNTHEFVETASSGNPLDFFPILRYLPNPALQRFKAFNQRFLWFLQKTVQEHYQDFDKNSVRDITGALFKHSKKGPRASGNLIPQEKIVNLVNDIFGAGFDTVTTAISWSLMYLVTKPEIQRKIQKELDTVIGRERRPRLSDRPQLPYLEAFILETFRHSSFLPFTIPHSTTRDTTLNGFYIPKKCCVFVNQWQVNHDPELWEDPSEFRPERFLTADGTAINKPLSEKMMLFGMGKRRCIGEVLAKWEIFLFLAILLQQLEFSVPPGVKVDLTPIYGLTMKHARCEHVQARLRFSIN
The note with it: 50 µM menadione; parathion 200 µM.

Series [4] concerns human liver microsomes. Description: paraoxon formation from parathion. The series is classed as biochemical.
For series [5], the target named is T4, CYP2B6 (Homo sapiens, UniProt P20813).
T4 sequence (P20813 1-491): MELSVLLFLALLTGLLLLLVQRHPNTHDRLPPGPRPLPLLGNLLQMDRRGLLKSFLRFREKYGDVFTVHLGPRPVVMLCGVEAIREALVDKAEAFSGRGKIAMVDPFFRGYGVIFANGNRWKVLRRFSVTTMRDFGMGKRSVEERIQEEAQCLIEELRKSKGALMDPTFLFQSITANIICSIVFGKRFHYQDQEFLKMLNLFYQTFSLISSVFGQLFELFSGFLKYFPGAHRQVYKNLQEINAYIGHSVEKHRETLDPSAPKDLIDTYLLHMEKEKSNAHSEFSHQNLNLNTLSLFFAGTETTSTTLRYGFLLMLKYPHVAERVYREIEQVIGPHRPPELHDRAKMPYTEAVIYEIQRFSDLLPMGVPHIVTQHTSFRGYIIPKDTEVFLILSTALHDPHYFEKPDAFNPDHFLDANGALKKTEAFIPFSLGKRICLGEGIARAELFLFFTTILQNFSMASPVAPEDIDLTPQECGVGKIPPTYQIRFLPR
As to the kind of experiment: recombinant CYP activity with fluorogenic substrate. Format: biochemical.

As usually defined, the IC50 is the midpoint of a concentration-inhibition curve.

As to `CC1=CC(=O)c2ccccc2C1=O` [menadione, 2-methylnaphthalene-1,4-dione], the IC50 is 2.36 ± 0.11 µM in series [1], 8.01 ± 0.62 µM in series [2] and 5.76 ± 0.78 µM in series [5]. The “CYP1A2 mediated activation of parathion and AChE inhibition” value in series [3] was “completely abolished”. Further, the paraoxon formation entry in series [4] is “marked decrease”.

These data come from paper PMC4579064 (Toxicology and applied pharmacology, 2015).
